The conditions of data set [1]: cited from earlier work.
For data set [2], the system named is Schaffer collateral (SC)-CA1 synapses. The data set can be described thus: LTP recordings on horizontal hippocampal slices (fEPSP amplitude after high-frequency stimulation). It counts as in vivo, mice. How it is done: (§1) C57BL/6 mice of either sex (4-6 months of age; n=6 per group) received vehicle or BACE1 inhibitors, Lanabecestat (AZD3293) solution at 0.25 mg/kg or 0.5 mg/kg) via oral gavage (Eketjall et al., 2016b). For Verubescstat, 3mg/kg dose was used and delivered orally via gavage (Kennedy et al., 2016). Treatment usually last 2-4 months. The mGluR1 positive allosteric modulator Ro0711401 at 10 mg/kg was given as intraperitoneal injections (IP) 1 hour before decapitation for LTP experiments (Notartomaso et al., 2013). For behavioral assays, Ro0711401 was deliver via IP injection at 12-hour intervals for 6-8 weeks. The mGluR1/5 positive allosteric modulator CHPG was mixed in aCSF and used during recording LTP. The drug was applied in a bath during baseline recording for at least for 30 minutes before HFS stimulation was applied and LTP was recorded (Le Duigou and Kullmann, 2011).
Acute brain slices were prepared as previously described (Hu et al., 2018). Briefly, the mice were decapitated and the brains were immersed in low-calcium artificial cerebrospinal fluid (aCSF) containing (in mM): 125 NaCl, 2.5 KCl, 10 glucose, 25 NaHCO3, 1.25 NaH2PO4, 0.4 L-ascorbic acid, 3 myo-inositol, 2 Na-pyruvate, 3 MgCl2 and 0.1 CaCl2 continuously bubbled with 95% O2 and 5% CO2 (pH≈7.3). Animals were decapitated with a guillotine and the brain was quickly removed to an ice-cold aCSF chamber with constant bubbling of 95% O2 and 5% CO2. Acute horizontal brain slices containing the hippocampus were obtained using a Campden 7000 smz-2 vibratome from 4-7-month-old mice at 350 μm thick. Slices were immediately transferred to an incubation beaker containing normal aCSF (same as the low-calcium aCSF except that 1 mM MgCl2 and 1, 1.2, or 2 mM CaCl2 were used) at 30° C., continuously bubbled with 95% O2 and 5% CO2. Slices were allowed to recover for 1 hour and then were transferred to an MED-64 recording chamber with the same aCSF solution at ≈30° C., maintained by MED ThermoConnector (Automate Scientific) with continuous aCSF perfusion at 2 ml/min.
LTP recordings on hippocampal slices were performed according to previously-described procedures (Shimono et al., 2002; Baba et al., 2003; Itoh et al., 2005). Upon obtaining horizontal hippocampal slices from the brains of mice, the prepared slices were then placed onto the center of an MED probe (MED-P515A; AutoMate™ Scientific) with continuous perfusion of aCSF and bubbling of 95% O2 and 5% CO2. The device has an array arranged in an 8×8 pattern of 64 planar microelectrodes across a hippocampal slice. Each electrode is 20×20 μm with an interelectrode distance of 150 μm. A MED-A64HE1S head amplifier and a MED-A64MD1 main amplifier, run by Mobius software, were used for data acquisition and analysis. SCs to CA1 synapses were typically analyzed for LTP assays. fEPSPs caused by stimulation were recorded at a 20-kHz sampling rate within the CA1 subregion of the hippocampus. Control fEPSPs were recorded for at least 10 min before the conditioning stimulation, using a response ˜50% of the maximum. After a stable baseline was established, LTP was induced with three trains of 100 Hz for 1 s with an intertrain interval F of 20 s. Field potential amplitudes were then measured. Data are expressed as mean±SEM. Synaptic strength was evaluated by measuring changes in the fEPSP amplitude relative to baseline. Statistics were calculated by Student's t tests.

Data set [3] concerns mice (WT BACE1+/+ or BACE1-null). Kind of data set: Open field test. The data set is classed as in vivo. How it is done: (§2) Treatment usually last 2-4 months. […] For behavioral assays, Ro0711401 was deliver via IP injection at 12-hour intervals for 6-8 weeks. The mGluR1/5 positive allosteric modulator CHPG was mixed in aCSF and used during recording LTP.
Each subject was released in the middle of the arena and observed for 10 minutes. Performance in the open field was recorded by a computer-based video tracking system (Any maze™ software, San Diego instruments, USA). Activity measures included distance traveled, percentage of time spent in corners vs. the center of the arena, and speed of movement during active exploration. The number of entries to the central zone of the open field was also recorded. Statistics were calculated by Student's t tests.

Data set [4] has the same test system. The data set can be described thus: Morris water maze. It counts as in vivo. How it is done: as §2
The Morris water maze test was used to assess cognitive impairment. The apparatus consisted of a white circular tank (120 cm in diameter and 40 cm deep) filled with warm water (22° C.). The water was made to appear opaque using white nontoxic paint. A transparent platform (8 cm in diameter) was located in the middle of the southwest quadrant. Mice were subjected to four consecutive trials each day over a 3-day training period (with a flag attached to the platform) and then again for 5 days (no flag attached to platform) and the platform was submerged 0.5 cm below the water surface. Each mouse was released from four different positions around the perimeter of the tank (north, northwest, east, and southeast). In each trial, every mouse was allowed to swim until it found the platform (for a maximum of 60 s) and was subsequently left on the platform for 20 s between trials. If the platform was not found in 60 s, the mouse was guided to the platform and remained there for 20 s. The escape latency to find the hidden platform was automatically recorded using a video tracking system (Any-maze, San Diego instruments). At the end of the training on the eighth day, a probe test was conducted for […] on the 9th day. The platform was removed; each was released from the northeast quadrant and was allowed to swim for 60 s. Memory retention was measured by quantifying the time spent in the target quadrant, the number of entries made into the southwest quadrant, and the number of crossings over the previous platform location. Statistics were calculated by Student's t tests. Values are expressed as mean±SEM.

Data set [5] shares this test system. Kind of data set: Y maze spontaneous alternation task. It counts as in vivo.
Text: as §2
The symmetrical Y maze made of acrylic consists of three arms separated by 120 degrees. Each arm is 40 cm long, 17 cm high, 4 cm wide at the bottom and 13 cm wide at the top. Each mouse was placed in the center of the Y maze and was allowed to explore freely through the maze during a 5 min session. The sequence and total number of arms entered was recorded. Arm entry was considered to be completed when the hind paws of the mouse had been completely placed in the arm. Percentage of alternations is the number of triads containing entries into all three arms divided by the maximum possible alternations (the total number of arms entered minus 2)×100. Statistics were calculated by Student's t tests.

The test system of data set [6] is synaptic proteins PSD95, mGluR2, Synaptophysin in synaptosome fraction. Kind of data set: Western analysis of synaptic proteins in synaptosomes from treated animals. It counts as in vivo, mice. The following applies: chronic treatment, Lanabecestat 0.5 mg/kg or Verubecestat 3 mg/kg. How it is done: as §1
Synaptosome isolation was performed using Thermo Scientific Syn-PER Synaptic Protein Extraction Reagent (cat #87793) from whole brain samples. Briefly, mice were sacrificed by live decapitation, and rapidly dissected hippocampi were homogenized in Syn-Per reagent, ˜1 ml/100 mg tissue. Samples were then centrifuged at 1200×g for 10 min. The resulting supernatant was then centrifuged at 15,000×g for 20 min. Pellets (synaptosomes) were resuspended in buffer B ([…] in 6 mm Tris, pH 8.0) with 1% SDS, briefly sonicated, and frozen in −80° C. Total protein extraction was performed according to previously-described procedures (Hu et al., 2007). Brain samples were homogenized in radioimmunoprecipitation assay (RIPA) buffer (50 mM Tris-HCl, pH 7.4, 1% NP-40, 0.25% sodium deoxycholate, 150 mM NaCl, 1 mM EDTA, 1 mM NaF, 1 mM Na3VO4, and a protease inhibitor cocktail [Roche]) and centrifuged at 13,200 rpm for 90 min. Equal amounts of protein were resolved on a NuPAGE Bis-Tris gel (Invitrogen) and transferred onto nitrocellulose membranes (Invitrogen). Subsequently, blots were incubated with primary antibodies 1:1,000 mGluR1 [AB_12551; Cell Signaling]; 1:1,000 PSD-95 [AB_36233; Cell Signaling]; 1:5,000 GluR1 [AB_05-855; Upstate]; 1:1,000 GluR2/3 [AB_07-598; Upstate]; 1:1,000 GluR4 [AB_06-308; Upstate]; 1:1,000 Homer [AB_8231; Cell Signaling]; 1:500 TMEM25 [AB_24361-1-AP; ProteinTech Group]; 1:1,000 Bassoon [AB_141021; Synaptic Systems]; 1:10,000 Actin [AB_A5441; Sigma], overnight at 4° C. After extensive washing, blots were reacted with HRP-conjugated secondary antibodies and visualized using enhanced chemiluminescence (Thermo Scientific).

Setting [7] is: BACE1-null mice, 10 mg/kg i.p. every 12 hours, vs mock treatment.

Here are results for three compounds from patent US12156879B2, “Combining BACE1 inhibitors with mGluR agonists for Alzheimer's disease therapy” (University of Connecticut, priority 2019, dated 2024).

The structures appear in SMILES notation.

In the case of `NC(C(=O)O)c1cc(O)ccc1Cl` (racemic) [CHPG, (RS)-2-Chloro-5-hydroxyphenylglycine], the brain penetrability entry in data set [1] is on record as “non-brain penetrable”. The “LTP response vs mock treated slices” value in data set [2] (BACE1-null slices pre-treated with 125 nM for 30 min) was “significantly improved”. The “LTP response vs mock treatment” value is “slightly improved” in data set [2] (CHPG bath on slices from WT mice treated with Lanabecestat 0.5 mg/kg for 60 days) and “markedly improved” in data set [2] (CHPG bath on slices from WT mice treated with Verubecestat 3 mg/kg for 60 days).
As for `O=C(Nc1nc(C(F)(F)F)co1)C1c2ccccc2Oc2ccccc21` [Ro0711401, N-[4-(trifluoromethyl)-1,3-oxazol-2-yl]-9H-xanthene-9-carboxamide], the “time spent in the center of the open field” value in data set [3] (BACE1-null mice after the treatment) is recorded as “more time spent in the center”. In data set [3] (setting [7]), the “average speed in the open field arena” value is recorded as “lowered” and the “total distance covered in the open field arena” value was “lowered”. The brain penetrability result in data set [1] was “brain-penetrable”. For the same compound, the “LTP from acutely-sectioned brain slices vs vehicle” value in data set [2] (4-6 month old BACE1-null mice, 10 mg/kg i.p. one hour before sacrifice) is given as “significantly enhanced”. For the same compound, the “LTP after chronic treatment” value in data set [2] (BACE1-null mice, Ro0711401 10 mg/kg i.p. every 12 hours for about two months, after the behavioral tests) is given as “significantly elevated to the level close to that of WT mice”. For the same compound, the “number of entries made to the platform quadrant” value in data set [4] (9th day probe, BACE1-null treated, WT 6.364±0.5094, BACE1-null 3.700±0.5385) came to 4.900±0.6403. Also, the “time to reach the platform, habituation day 3” value in data set [4] (BACE1-null+Ro0711401 mice, BACE1-null 31.56±3.432 s, WT 8.098±1.318 s) turned out to be 18.20 ± 3.203 s. Further, the “time to reach the platform, habituation day 1” value in data set [4] (BACE1-null+Ro0711401 mice, BACE1-null 41.32±3.131 s, WT 21.99±2.986 s) came out at 24.88 ± 2.935 s. For the same compound, in data set [4] (habituation and training phases, BACE1-null 3.872±0.7645, WT 1.205±0.2805), the “average distance covered to reach the platform over the trials” value was found to be 1.909±0.3878 meters. In addition, the “average duration to reach the platform of untreated BACE1-null mice relative to BACE1-null mice treated with Ro0711401” value in data set [4] (training phase, 5 days, submerged platform, all trial days) was “significantly higher”. Moreover, the “total numbers of arm entries (entrance performance)” value in data set [5] (BACE1-null mice, 10 mg/kg i.p. every 12 hours, about 45 days) is on record as “improved entrance performance”. For the same compound, in data set [5] (WT, BACE1-null and BACE1-null with Ro0711401), the “changes in percentage of spontaneous alternation among groups” value is reported as “not obvious”.
In the case of `CN1C(N)=N[C@](C)(c2cc(NC(=O)c3ccc(F)cn3)ccc2F)CS1(=O)=O` [Verubecestat], in data set [6], the “PSD95 level in synaptosome fraction” value is “significant decrease”, the “Synaptophysin level in synaptosome fraction” value is given as “significant decrease” and the “mGluR2 level in synaptosome fraction” value is on record as “significant decrease”. For the same compound, in data set [1], the brain penetrability result was “brain-penetrable”. Further, the “LTP at SC-CA1 synapses” value in data set [2] (WT mice, daily oral Verubecestat 3 mg/kg or Lanabecestat 0.5 mg/kg for 2-4 months) is reported as “significantly reduced”. The “potentiation at 30 minutes post-stimulation” value in data set [2] (slices from 4-6-month-old WT mice, Lanabecestat 0.5 mg/kg or Verubecestat 3 mg/kg, control slices 245.9±0.9864%) is listed as 113.1±1.353%.
